Experimental data from US20250090507A1, “Methods of Treating Cancer With a B-RAF Inhibitor” (MapKure, LLC, priority 2022, published 2025).
Entries after “also recorded” stand apart in the source; their conditions may differ. Where two headings read alike, the source gives them in different places.

Columns and labels:
[1] = tested on: tumor cell lines harboring non-V600 B-RAF mutations; experiment: Preclinical inhibition of tumor cell lines; assay type: cell-based; settings: preclinical studies
[2] = Phase 1 study (NCT04249843): plasma pharmacokinetics of Compound A; assay type: in vivo, human; settings: for Racc: accumulation ratio based on AUC8h; for Cmax / AUC(0-t) / Tmax: human, plasma, oral
Protocol: For a single-dose profile: AUC from zero to the last measurable concentration (AUClast), AUC from zero to infinity (AUC0-∞), maximum observed plasma concentration (Cmax), time to maximum observed plasma concentration (tmax), t1/2, apparent clearance, and apparent volume of distribution (Vz/F). In addition, AUClast,ss, AUCtau, Cmax,ss, and tmax, ss were calculated at steady state.
Pharmacokinetic assay: plasma samples were assayed for Compound A (or possible major metabolites) concentration with use of a validated chromatography method.
Pharmacokinetic data were analyzed using the PK Population. Compound A PK variables (i.e., AUClast, AUC0-∞, Cmax, Tmax, t1/2, apparent clearance and Vz/F) were calculated after single dosing in Phase 1a. In addition, AUClast, ss, AUCtau, Cmax,ss, and tmax,ss were calculated in Phase 1b. The PK parameters were calculated as appropriate using noncompartmental methods and summary statistics were provided. Compound A (or possible major metabolites) plasma concentration data and PK parameters were tabulated and summarized for Day 1 of Cycle 1, Day 1 of Cycle 2 and at steady state (Phase 1b). Descriptive statistics included means, medians, minimums, maximums, standard deviation, coefficient of variation (CV), geometric mean, and geometric CV as appropriate. Mean plasma concentrations were also plotted against time for each dose level. Additional PK analyses may be conducted as appropriate.
Tumor response: • 1 patient evaluable, 201-011: SD week 8. • Preliminary PK parameters and data are listed in Table 6. • Parameters listed as Mean (% CV) • Tmax reported as median (min, max) • Accumulation ratio Racc based on AUC8h • Patient 101-007 was excluded from C2D1 of cohort 2 (10 mg) due to dose reduction. • Patient 101-011 was excluded from summary statistics of CID1 of cohort 6 (60 mg) due to […] samples. • Patient 201-011 C2D1 parameters excluded from summary statistics of C2D1 of cohort 6 due to extended dose interruption.

[3] = 40 mg, 40 mg QD, C2D1, patient 202-012

## O=C1CCc2c(Oc3ccc4c(c3)[C@H]3[C@H](NC(=O)Nc5cc(F)c(F)cc5F)[C@H]3O4)ccnc2N1 [Compound A, 1-((1S,1aS,6bS)-5-((7-oxo-5,6,7,8-tetrahydro-1,8-naphthyridin-4-yl)oxy)-1a,6b-dihydro-1H-cyclopropa[b]benzofuran-1-yl)-3-(2,4,5-trifluorophenyl)urea]
[1]
  Inhibition of tumor cell lines: inhibited
[2]; 5 mg QD, Mean (%CV)
  Racc: 17 (117%)
[2]; 10 mg QD, Mean (%CV)
  Racc: 6 (49%)
[2]; 15 mg QD, Mean (%CV)
  Racc: 7 (60%)
[2]; 25 mg QD, Mean (%CV)
  Racc: 4 (23%)
[2]; 40 mg QD, Mean (%CV)
  Racc: 4 (23.5%)
[2]; 40 mg QD, patient 101-010
  Racc: 4.05
[2]; 40 mg QD, patient 102-012
  Racc: 4.06
[2]; 40 mg QD, patient 201-010
  Racc: 5.43
[2]; 40 mg QD, patient 202-012
  Racc: 3.06
[2]; 60 mg QD, patient 101-011
  Racc: 6.7
[2]; 60 mg QD, patient 201-011
  Racc: 5.7
[2]; 5-60 mg QD, preliminary PK
  Dose proportionality of exposure: generally increased dose-proportionally; also recorded: generally dose-proportional
[2]; cohorts up to 40 mg QD
  Exposure across cohorts versus dose: generally proportional to the increase in the dose
[2]; 5 mg, 5 mg QD, C2D1, Mean (%CV)
  Cmax: 451 ng/mL
[2]; 5 mg, 5 mg QD, C2D1, Mean (%CV), read-out: AUC8 h
  AUC(0-t): 2660 ng·h/mL
[2]; 5 mg, C1D1, Mean (%CV)
  Cmax: 105 ng/mL
[2]; 5 mg, C1D1, Mean (%CV), read-out: AUC8 h
  AUC(0-t): 414 ng·h/mL
[2]; 5 mg, C1D1, Mean (%CV), read-out: AUC24 h
  AUC(0-t): 1380 ng·h/mL
[2]; 10 mg, 10 mg QD, C2D1, Mean (%CV), patient 101-007 excluded
  Cmax: 973 ng/mL
[2]; 10 mg, 10 mg QD, C2D1, Mean (%CV), patient 101-007 excluded, read-out: AUC8 h
  AUC(0-t): 5720 ng·h/mL
[2]; 10 mg, C1D1, Mean (%CV)
  Cmax: 197 ng/mL
[2]; 10 mg, C1D1, Mean (%CV), read-out: AUC8 h
  AUC(0-t): 1060 ng·h/mL
[2]; 10 mg, C1D1, Mean (%CV), read-out: AUC24 h
  AUC(0-t): 3140 ng·h/mL
[2]; 15 mg, 15 mg QD, C2D1, Mean (%CV)
  Cmax: 1660 ng/mL
[2]; 15 mg, 15 mg QD, C2D1, Mean (%CV), read-out: AUC8 h
  AUC(0-t): 9930 ng·h/mL
[2]; 15 mg, C1D1, Mean (%CV)
  Cmax: 274 ng/mL
[2]; 15 mg, C1D1, Mean (%CV), read-out: AUC8 h
  AUC(0-t): 1530 ng·h/mL
[2]; 15 mg, C1D1, Mean (%CV), read-out: AUC24 h
  AUC(0-t): 4780 ng·h/mL
[2]; 25 mg, 25 mg QD, C2D1, Mean (%CV)
  Cmax: 2110 ng/mL
[2]; 25 mg, 25 mg QD, C2D1, Mean (%CV), read-out: AUC8 h
  AUC(0-t): 12300 ng·h/mL
[2]; 25 mg, C1D1, Mean (%CV)
  Cmax: 593 ng/mL
[2]; 25 mg, C1D1, Mean (%CV), read-out: AUC8 h
  AUC(0-t): 3090 ng·h/mL
[2]; 25 mg, C1D1, Mean (%CV), read-out: AUC24 h
  AUC(0-t): 9170 ng·h/mL
[2]; 40 mg, 40 mg QD, C2D1, Mean (%CV)
  Cmax: 2970 ng/mL
[2]; 40 mg, 40 mg QD, C2D1, Mean (%CV), read-out: AUC8 h
  AUC(0-t): 15700 ng·h/mL
[2]; 40 mg, 40 mg QD, C2D1, patient 101-010
  Cmax: 3600 ng/mL
[2]; 40 mg, 40 mg QD, C2D1, patient 101-010, read-out: AUC8 h
  AUC(0-t): 15600 ng·h/mL
[2]; 40 mg, 40 mg QD, C2D1, patient 102-012
  Cmax: 3550 ng/mL
[2]; 40 mg, 40 mg QD, C2D1, patient 102-012, read-out: AUC8 h
  AUC(0-t): 18300 ng·h/mL
[2]; 40 mg, 40 mg QD, C2D1, patient 201-010
  Cmax: 2410 ng/mL
[2]; 40 mg, 40 mg QD, C2D1, patient 201-010, read-out: AUC8 h
  AUC(0-t): 13400 ng·h/mL
[2]; [3]
  Cmax: 2300 ng/mL
  Tmax: 3 h
[2]; 40 mg, 40 mg QD, C2D1, patient 202-012, read-out: AUC8 h
  AUC(0-t): 15400 ng·h/mL
[2]; 40 mg, C1D1, Mean (%CV)
  Cmax: 698 ng/mL
[2]; 40 mg, C1D1, Mean (%CV), read-out: AUC8 h
  AUC(0-t): 3960 ng·h/mL
[2]; 40 mg, C1D1, Mean (%CV), read-out: AUC24 h
  AUC(0-t): 12100 ng·h/mL
[2]; 40 mg, C1D1, patient 101-010
  Cmax: 692 ng/mL
[2]; 40 mg, C1D1, patient 101-010, read-out: AUC8 h
  AUC(0-t): 3850 ng·h/mL
[2]; 40 mg, C1D1, patient 101-010, read-out: AUC24 h
  AUC(0-t): 12000 ng·h/mL
[2]; 40 mg, C1D1, patient 102-012
  Cmax: 789 ng/mL
[2]; 40 mg, C1D1, patient 102-012, read-out: AUC8 h
  AUC(0-t): 4510 ng·h/mL
[2]; 40 mg, C1D1, patient 102-012, read-out: AUC24 h
  AUC(0-t): 12300 ng·h/mL
[2]; 40 mg, C1D1, patient 201-010
  Cmax: 415 ng/mL
[2]; 40 mg, C1D1, patient 201-010, read-out: AUC8 h
  AUC(0-t): 2470 ng·h/mL
[2]; 40 mg, C1D1, patient 201-010, read-out: AUC24 h
  AUC(0-t): 8460 ng·h/mL
[2]; 40 mg, C1D1, patient 202-012
  Cmax: 896 ng/mL
[2]; 40 mg, C1D1, patient 202-012, read-out: AUC8 h
  AUC(0-t): 5040 ng·h/mL
[2]; 60 mg, 60 mg QD, C2D1, Mean row, patient 201-011 excluded
  Cmax: 5330 ng/mL
[2]; 60 mg, 60 mg QD, C2D1, Mean row, patient 201-011 excluded, read-out: AUC8 h
  AUC(0-t): 37500 ng·h/mL
[2]; 60 mg, 60 mg QD, C2D1, patient 201-011 (excluded from C2D1 summary, extended dose interruption)
  Cmax: 5230 ng/mL
[2]; 60 mg, 60 mg QD, C2D1, patient 201-011 (excluded from C2D1 summary, extended dose interruption), read-out: AUC8 h
  AUC(0-t): 31300 ng·h/mL
[2]; 60 mg, C1D1, Mean (%CV), patient 101-011 excluded
  Cmax: 881 ng/mL
[2]; 60 mg, C1D1, Mean (%CV), patient 101-011 excluded, read-out: AUC8 h
  AUC(0-t): 4930 ng·h/mL
[2]; 60 mg, C1D1, Mean (%CV), patient 101-011 excluded, read-out: AUC24 h
  AUC(0-t): 15400 ng·h/mL
[2]; 60 mg, C1D1, patient 101-011 (excluded from C1D1 summary statistics, AQL samples)
  Cmax: 878 ng/mL
[2]; 60 mg, C1D1, patient 101-011 (excluded from C1D1 summary statistics, AQL samples), read-out: AUC8 h
  AUC(0-t): 5630 ng·h/mL
[2]; 60 mg, C1D1, patient 101-011 (excluded from C1D1 summary statistics, AQL samples), read-out: AUC24 h
  AUC(0-t): 18900 ng·h/mL
[2]; 60 mg, C1D1, patient 201-011
  Cmax: 957 ng/mL
[2]; 60 mg, C1D1, patient 201-011, read-out: AUC8 h
  AUC(0-t): 5510 ng·h/mL
[2]; 60 mg, C1D1, patient 201-011, read-out: AUC24 h
  AUC(0-t): 17600 ng·h/mL
[2]; 60 mg, C1D1, patient 202-014
  Cmax: 804 ng/mL
[2]; 60 mg, C1D1, patient 202-014, read-out: AUC8 h
  AUC(0-t): 4340 ng·h/mL
[2]; 60 mg, C1D1, patient 202-014, read-out: AUC24 h
  AUC(0-t): 13100 ng·h/mL
[2]; 5 mg QD, C2D1, median (min, max)
  Tmax: 1 h
[2]; 40 mg QD, C2D1, median (min, max)
  Tmax: 1.5 h
[2]; 60 mg QD, C2D1, patient 201-011 (excluded from C2D1 summary, extended dose interruption)
  Tmax: 2 h
[2]; 5-60 mg QD, preliminary PK, overall
  Tmax: ~2 h
[2]; preliminary PK
  average accumulation in exposure at steady-state: 7.4 fold
  terminal half-life: long
